Converted amounts (≈) assume the structure as drawn.

Experimental findings from ChEMBL document CHEMBL4177678, “Design, synthesis and in vitro anti-tuberculosis activity of benzo[6,7]cyclohepta[1,2-b]pyridine-1,2,3-triazole derivatives” (Bioorg Med Chem Lett, 2017) are described below.

In the first data set the test system is HEK-293T. Description: Cytotoxicity against human HEK293T cells assessed as reduction in cell viability at 50 ug/ml after 24 hrs by MTT assay. Format: cell-based.
Settings: not given
With `CCCCCCc1cn(Cc2cc3c(nc2C)-c2ccccc2CCC3)nn1`, the Activity entry was “Non-Toxic”.

As to `Cc1cc2c(cc1C)-c1nc(C)c(Cn3cc(-c4cc5ccccc5c5ccccc45)nn3)cc1CCC2`, the Activity entry is given as “Non-Toxic”.

Another data set deals with Mycobacterium tuberculosis. Description: Antitubercular activity against Mycobacterium tuberculosis H37Rv ATCC 27294 after 28 days by two-fold serial dilution method. The following applies: H37Rv ATCC 27294, 672 h. Format: functional.
In general, MIC refers to the least concentration at which growth counts as inhibited. A lower MIC goes with greater potency. For the molecule `COc1ccc2cc(-c3cn(Cc4cc5c(nc4C)-c4ccccc4CCC5)nn3)ccc2c1`, inhibition of growth (MIC) required 25 µg/mL (≈ 56 µM).

Take `Cc1cc2c(cc1C)-c1nc(C)c(Cn3cc(-c4cccnc4)nn3)cc1CCC2`: the minimal inhibitory concentration (MIC) was determined as 6.25 µg/mL (≈ 15.8 µM).

Consider `Cc1nc2c(cc1Cn1cc(-c3ccccc3)nn1)CCCc1ccccc1-2`, for which the MIC is 25 µg/mL (≈ 68.2 µM).

`Cc1ccc(-c2cn(Cc3cc4c(nc3C)-c3ccccc3CCC4)nn2)cc1` returned an MIC of 12.5 µg/mL (≈ 32.9 µM).

In the case of `Cc1cc2c(cc1C)-c1nc(C)c(Cn3cc(-c4ccsc4)nn3)cc1CCC2`, inhibition of growth (MIC) required 12.5 µg/mL (≈ 31.2 µM).

For `CCCCCc1ccc(-c2cn(Cc3cc4c(nc3C)-c3ccccc3CCC4)nn2)cc1`, the MIC stood at 12.5 µg/mL (≈ 28.6 µM).

The molecule `Cc1nc2c(cc1Cn1cc(-c3cccnc3)nn1)CCCc1ccccc1-2` had an MIC of 6.25 µg/mL (≈ 17 µM).

Turning to `CCCCCCc1cn(Cc2cc3c(nc2C)-c2ccccc2CCC3)nn1`, the minimal inhibitory concentration (MIC) turned out to be 1.56 µg/mL (≈ 4.17 µM).

Molecule `COc1cccc(-c2cn(Cc3cc4c(nc3C)-c3cc(C)c(C)cc3CCC4)nn2)c1` displayed an MIC of 25 µg/mL (≈ 58.9 µM). This MIC lies about 16-fold higher than the previous one.

Molecule `Cc1nc2c(cc1Cn1cc(-c3ccsc3)nn1)CCCc1ccccc1-2` had an MIC of 12.5 µg/mL (≈ 33.6 µM). Compared with the last molecule, the MIC is about 2-fold lower.

As to `Cc1cc2c(cc1C)-c1nc(C)c(Cn3cc(-c4cc5ccccc5c5ccccc45)nn3)cc1CCC2`, the MIC is 1.56 µg/mL (≈ 3.15 µM).

Turning to `CCCCCCc1cn(Cc2cc3c(nc2C)-c2cc(C)c(C)cc2CCC3)nn1`, the MIC amounted to 12.5 µg/mL (≈ 31 µM). This MIC is about 8-fold higher than that of the molecule before.

`Cc1ccc(-c2cn(Cc3cc4c(nc3C)-c3cc(C)c(C)cc3CCC4)nn2)cc1` returned an MIC of 12.5 µg/mL (≈ 30.6 µM).

In turn, `CCCCCc1ccc(-c2cn(Cc3cc4c(nc3C)-c3cc(C)c(C)cc3CCC4)nn2)cc1` registered an MIC greater than 25 µg/mL.

For `CO[C@H]1/C=C/O[C@@]2(C)Oc3c(C)c(O)c4c(O)c(c(/C=N/N5CCN(C)CC5)c(O)c4c3C2=O)NC(=O)/C(C)=C\C=C\[C@H](C)[C@H](O)[C@@H](C)[C@@H](O)[C@@H](C)[C@H](OC(C)=O)[C@@H]1C` [RIFAMPIN], the MIC came out at 0.2 µg/mL (≈ 0.243 µM).

The molecule `COc1cccc(-c2cn(Cc3cc4c(nc3C)-c3ccccc3CCC4)nn2)c1` gave an MIC greater than 25 µg/mL.

With `Cc1nc2c(cc1Cn1cc(-c3cc4ccccc4c4ccccc34)nn1)CCCc1ccccc1-2`, the MIC was greater than 25 µg/mL.

`Cc1nc2c(cc1Cn1cc(-c3ccccn3)nn1)CCCc1ccccc1-2`: the MIC stood at 12.5 µg/mL (≈ 34 µM).

For `CC[C@@H](CO)NCCN[C@@H](CC)CO` [ETHAMBUTOL], the MIC was 3.13 µg/mL (≈ 15.3 µM).

Molecule `Cc1cc2c(cc1C)-c1nc(C)c(Cn3cc(-c4ccccn4)nn3)cc1CCC2` returned an MIC of 25 µg/mL (≈ 63.2 µM).

Consider `NNC(=O)c1ccncc1` [ISONIAZID], for which the MIC came to 0.1 µg/mL (≈ 0.729 µM).

`COc1ccc2cc(-c3cn(Cc4cc5c(nc4C)-c4cc(C)c(C)cc4CCC5)nn3)ccc2c1` came in with a minimal inhibitory concentration (MIC) of 25 µg/mL (≈ 52.7 µM).

`Cc1cc2c(cc1C)-c1nc(C)c(Cn3cc(-c4ccccc4)nn3)cc1CCC2` registered a minimal inhibitory concentration (MIC) of 25 µg/mL (≈ 63.4 µM).
